Assays:
S. aureus ATCC 6538 = experiment: Protocol 3 time-dependent antimicrobial activity at one dose level; type: cell-based, Staphylococcus aureus; conditions: 50 μg/ml, 10 mM sodium phosphate buffer pH 7.4, 1, 2, 5 and 15 minutes, room temperature
Method: The objective of this protocol is to establish a procedure for determining the antimicrobial activity of indolicidin (e.g., L-IND) at 50 μg/ml over an extended exposure time up to 24 hours at room temperature. It is believed that this procedure more closely mimics the recommended use of lens-care products.
Exposure of the test organism to indolicidin occurs in a buffered solution for up to 24 hours with sampling for viability at different time intervals. Polypropylene 96-well microtiter plates and microcentrifuge tubes are used for exposure and dilution of indolicidin, respectively.
The following materials are used: sterile glass tubes containing 5 ml of Mueller-Hinton Broth (MHB), Mueller-Hinton agar plates, sterile 96-well polypropylene microtiter plates, and sterile polypropylene microcentrifuge tubes.
One or more of the following microorganisms are used in assays using this protocol or modification of this protocol: Pseudomonas aeruginosa (ATCC 9027), Pseudomonas aeruginosa (ATCC 27853), and S. aureus (ATCC 6538).
Five 5 ml of MHB tubes are innoculated with the tester strain(s) from MHA plates and grown overnight at 37° C. on a shaker (180 rpm). […]
Survival is determined by counting the colonies appearing on plates after overnight incubation at 37° C. The results are expressed as CFU/ml and survival is expressed as the percent of the bacteria that survived the treatment. […]

[1] = Toxicity study, intraperitoneal administration
Method: The objective of this study was to determine if the treatment regimen proposed for the efficacy study of the defensin formulations caused target organ toxicity. This study is not intended to support application for research or marketing permits for products regulated by governmental agencies. The purpose of this study is to provide range-finding data is therefore, not within the scope of Good Laboratory Practice Guidelines.
Mice were treated by intravaginal administration twice daily at ˜12 hour intervals administered on Days 1 through 4. Mice were treated intraperitoneally three times on Day 1 at ˜4 hour intervals, and twice daily at ˜12 hour intervals administered on days 2 through 4.
Dosing volumes were 0.1 mL/mouse (intravaginal), 0.1 mL/mouse (intraperitoneal), and 20 μL/rabbit. The study lasted 5 days, with day 1 the first day of dose administration.
The dose formulations were supplied in pyrogen-free saline.

[2] = tested on: Pseudomonas aeruginosa (ATCC 9027); experiment: MIC / log kill assay, FDA 510(k) stand-alone procedure; type: cell-based
Method: (§1) The supernatant was discarded and the wash repeated.
(§2) The tube was inverted to dissolve the polypeptide. […] Solutions were used immediately or stored at −20° C.
(§3) The purpose of this experiment was to determine whether additives such as surfactants (pluronic) and chelating agents (EDTA) would effect L-IND activity. The concentrations selected for each organism tested ( S. aureus and P. aeruginosa) were based on the L-IND MIC for that organism. A lower concentration was also selected to determine whether the additives enhanced the antimicrobial activity of L-IND. Concentrations of L-IND ranged from 3.12 to 50 μg/ml. The concentration of sodium phosphate (SP) buffer was also examined and ranged from 1 to 10 mM.
(§4) A full factorial experimental design was used with 5 factors at 2 levels: 1) Exposure time (1 hr, 4hr); 2) SP buffer concentration, pH 7.4 (1 mM, 10 mM); 3) Surfactant concentration (0.25 wt %, 0.5 wt %); 4) EDTA concentration (0.1 wt %, 0.2 wt %); and 5) L-IND concentration (MIC and lower).
(§5) As described in the MIC procedure (Example 10), cultures were exposed to solutions containing various combinations of the above components for 1 or 4 hr at room temperature. Appropriate controls were conducted to evaluate the effects of individual components. Each replicate (assay done in triplicate) was then diluted 10-fold in NaCl and plated onto Mueller-Hinton agar. Colonies were then counted and log kill, effects of each additive, SP buffer concentration, and length of exposure on L-IND activity were examined. […]

[3] = tested on: Staphylococcus aureus (ATCC 6538); experiment: as above; type: cell-based; conditions: for log kill: 12.5 μg/ml
Method: as §1, §2, §3, §4, §5

In the case of CC[C@H](C)[C@H](N)C(=O)N[C@@H](CC(C)C)C(=O)N1CCC[C@H]1C(=O)N[C@@H](Cc1c[nH]c2ccccc12)C(=O)N[C@@H](CCCCN)C(=O)N[C@@H](Cc1c[nH]c2ccccc12)C(=O)N1CCC[C@H]1C(=O)N[C@@H](Cc1c[nH]c2ccccc12)C(=O)N[C@@H](Cc1c[nH]c2ccccc12)C(=O)N1CCC[C@H]1C(=O)N[C@@H](Cc1c[nH]c2ccccc12)C(=O)N[C@@H](CCCNC(=N)N)C(=O)N[C@@H](CCCNC(=N)N)C(N)=O [L-indolicidin, H2N-ILPWKWPWWPWRR-CONH2], the survival (S. aureus ATCC 6538) is reported as “no survival”, the gross alterations ([1]; 0.1 mL/mouse at 10, 100 or 1000 μg/mL, BPN-A-amide at 30, 300 or 3000 μg/mL) is reported as “no gross alternations” and the “deaths or clinical signs of toxicity” value ([1]; L-indolicidin 10, 100 or 1000 μg/mL, D-indolicidin 10 or 1000 μ/mL, All-Phe-indolicidin 10 μg/mL, BPN-A-amide 30, 300 or 3000 μg/mL) is reported as “no deaths or biologically significant clinical signs of toxicity”. The “effect of pluronic on activity” value ([2]; 32 μ/ml, 0.25 wt % pluronic, either SP buffer concentration) was “No effect”, the inhibition in kill ([2]; pluronic in 1 mM SP buffer, 32 and 16 μg/ml, 4 hr) was roughly 3 log and the log kill ([3]; 1 mM SP buffer, pluronic and EDTA at either concentration) was 6 log. For the same molecule, the log kill ([3]; 10 mM SP, without pluronic) was 6 log, the “effect of EDTA on activity” value ([3]; 10 mM SP, EDTA 0.1 or 0.2 wt %) was “no effect” and the inhibition in kill ([3]; 0.5 wt % pluronic, SP at 5 mM) was “approximately 4 log”. The inhibition in kill ([3]; 32 μ/ml, pluronic and 10 mM SP buffer) was greater than 3 log and the “effect of pluronic on activity” value ([3]; lower SP concentrations (1, 2.5 mM)) was “no effect in activity”.

Reference: patent publication US6482799B1, “Self-preserving multipurpose ophthalmic solutions incorporating a polypeptide antimicrobial” (The Regents of the University of California, priority 1999, dated 2002)
